In patent publication US10143718B2, “Covalent inhibitors of dual oxidase 1 (DUOX 1)” (The University of Vermont and State Agricultural College, priority 2015, dated 2018):
“Also recorded” adds a separate entry of the source.

Experiments:
[1] = system: mouse tracheal epithelial cells; test: Allergen-induced cytokine secretion from cultured mouse tracheal epithelial cells; assay type: cell-based; conditions: for HDM-induced IL-33 secretion (culture media): mouse tracheal epithelial cells, pretreated 30 minutes, then HDM for 2 hrs
Method: (§1) Cells were pretreated with acrolein (ACR), cinnamaldehyde (CIN), curcumin (Curc) or sulforaphane (SFN) for 30 minutes and then stimulated with HDM for 2 hrs. IL-33 was measured in culture media.

cellular GSH = test: Cellular GSH depletion; assay type: cell-based; conditions: at concentrations inhibiting allergen-induced IL-33 secretion and H2O2 production
DUOX1 [2] = target: T1, DUOX1 (Homo sapiens, UniProt Q9NRD9); test: Extracellular H2O2 production by HBE1 cells as a measure of DUOX1 activation (lactoperoxidase/tyrosine, HPLC); assay type: cell-based; conditions: for ATP-induced H2O2 production: electrophile 30 min prior to ATP stimulation, media collected after 10 min, 1-30 micromolar for food-derived electrophiles
T1 construct: endogenous in cells; host or cells: HBE1 (immortalized human bronchial epithelial cells)
Text: (§2) Based on identifying the involvement of Ca^2+-dependent DUOX1 activation and subsequent EGFR activation in allergen-induced IL-33 secretion from epithelial cells), the impact of acrolein exposure on allergen-induced Ca^2+ increases, extracellular H2O2 production (as a measure of DUOX1 activation) and EGFR tyrosine phosphorylation (as an indicator of EGFR activation) were studied.
Preliminary studies of DUOX1 targeting by electrophiles. Acrolein (2,3-propenal) is a highly reactive electrophile and a well-recognized environmental pollutant. In this example, other electrophilic compounds with similar chemical reactivity were determined to be capable of inhibiting allergen-induced DUOX1 activation. These studies were performed using immortalized human bronchoepithelial cells (HBE1) which were cultured and exposed to different electrophiles at various doses for 30 min prior to cell stimulation with HDM or with ATP (a known activator of DUOX1). Conditioned culture media was collected 10 min after cell stimulation and mixed for 15 min with 10 micrograms/mL lactoperoxidase (Sigma) and 1 mM tyrosine (Gibco), which results in formation of fluorescent dityrosine product as a function of H2O2 concentration, and was analyzed by HPLC with fluorescence detection and compared with exogenous standards based on similarly treated stock solutions of H2O2. The resulting data were corrected for basal H2O2 production by unstimulated cells and ATP-dependent H2O2 production in the presence of electrophiles were expressed relative to that by ATP alone (which was set at 100%).

[3] = system: allergic inflammation and mucus metaplasia; test: Acrolein exposure in a mouse model of allergic asthma; assay type: in vivo; conditions: non-toxic doses of acrolein
EGFR = test: Allergen-induced EGFR tyrosine phosphorylation (EGFR activation); assay type: cell-based; conditions: non-toxic concentrations (3-30 micromolar)
Text: as §2

[4] = system: human bronchial epithelial cell line HBE1; test: Allergen-induced cytokine secretion from HBE1 cells; assay type: cell-based; conditions: acrolein pretreatment
Method: as §1

DUOX1 [5] = target: T1, DUOX1; test: ARP labeling of DUOX1 in HBE1 cells (biotin tag, avidin purification, western blot); assay type: binding; conditions: 0, 10, or 30 micromolar for 30 minutes
Text: Since these various electrophiles act primarily by targeting susceptible cysteine residues by Michael addition, it was believed that they may directly target DUOX1 protein on one of its accessible cysteine residues within its extracellular peroxidase homology (PHD) domain. […] Moreover, since the PHD domain is unique to DUOX and not present in other NADPH oxidase isoforms, this targeting approach would avoid non-selective actions on these other isoforms, a common problem with most NADPH oxidase inhibitors currently in development. To determine whether acrolein-mediated inhibition of DUOX1 activity (FIG. 4) was associated with direct targeting of DUOX1 protein, HBE1 cells were treated with 0, 10, or 30 micromolar acrolein for 30 minutes and derivatized cell lysates with aldehyde reactive probe (ARP; Pierce), which converts acrolein-induced Michael adducts to induce a biotin tag. Biotin-tagged proteins were subsequently purified by avidin chromatography and collected biotin-tagged proteins (eluates) were then analyzed by 10% SDS-PAGE and western blotting with an alpha-DUOX1 antibody. Whole cell lysate were analyzed accordingly as loading controls.

[6] = system: allergen-mediated Ca^2+ increases; test: Allergen-induced Ca2+ increases in epithelial cells; assay type: cell-based; conditions: non-toxic concentrations (3-30 micromolar)
Text: as §2

[7] = system: innate airway responses to HDM; test: Acrolein inhalation, then allergen challenge; BAL cytokines analyzed; assay type: in vivo; conditions: mice; acrolein 5 ppm, 4 hrs; then HDM (50 micrograms) or Alternaria alternata challenge; BAL 1 hour later
Method: Electrophilic compounds can suppress allergic inflammation and innate allergen responses. […] Mice were exposed to acrolein (5 ppm; 4 hrs, and subsequently challenged with HDM (50 micrograms), and BAL cytokines were analyzed 1 hour later.

T1 sequence (Q9NRD9 22-1551): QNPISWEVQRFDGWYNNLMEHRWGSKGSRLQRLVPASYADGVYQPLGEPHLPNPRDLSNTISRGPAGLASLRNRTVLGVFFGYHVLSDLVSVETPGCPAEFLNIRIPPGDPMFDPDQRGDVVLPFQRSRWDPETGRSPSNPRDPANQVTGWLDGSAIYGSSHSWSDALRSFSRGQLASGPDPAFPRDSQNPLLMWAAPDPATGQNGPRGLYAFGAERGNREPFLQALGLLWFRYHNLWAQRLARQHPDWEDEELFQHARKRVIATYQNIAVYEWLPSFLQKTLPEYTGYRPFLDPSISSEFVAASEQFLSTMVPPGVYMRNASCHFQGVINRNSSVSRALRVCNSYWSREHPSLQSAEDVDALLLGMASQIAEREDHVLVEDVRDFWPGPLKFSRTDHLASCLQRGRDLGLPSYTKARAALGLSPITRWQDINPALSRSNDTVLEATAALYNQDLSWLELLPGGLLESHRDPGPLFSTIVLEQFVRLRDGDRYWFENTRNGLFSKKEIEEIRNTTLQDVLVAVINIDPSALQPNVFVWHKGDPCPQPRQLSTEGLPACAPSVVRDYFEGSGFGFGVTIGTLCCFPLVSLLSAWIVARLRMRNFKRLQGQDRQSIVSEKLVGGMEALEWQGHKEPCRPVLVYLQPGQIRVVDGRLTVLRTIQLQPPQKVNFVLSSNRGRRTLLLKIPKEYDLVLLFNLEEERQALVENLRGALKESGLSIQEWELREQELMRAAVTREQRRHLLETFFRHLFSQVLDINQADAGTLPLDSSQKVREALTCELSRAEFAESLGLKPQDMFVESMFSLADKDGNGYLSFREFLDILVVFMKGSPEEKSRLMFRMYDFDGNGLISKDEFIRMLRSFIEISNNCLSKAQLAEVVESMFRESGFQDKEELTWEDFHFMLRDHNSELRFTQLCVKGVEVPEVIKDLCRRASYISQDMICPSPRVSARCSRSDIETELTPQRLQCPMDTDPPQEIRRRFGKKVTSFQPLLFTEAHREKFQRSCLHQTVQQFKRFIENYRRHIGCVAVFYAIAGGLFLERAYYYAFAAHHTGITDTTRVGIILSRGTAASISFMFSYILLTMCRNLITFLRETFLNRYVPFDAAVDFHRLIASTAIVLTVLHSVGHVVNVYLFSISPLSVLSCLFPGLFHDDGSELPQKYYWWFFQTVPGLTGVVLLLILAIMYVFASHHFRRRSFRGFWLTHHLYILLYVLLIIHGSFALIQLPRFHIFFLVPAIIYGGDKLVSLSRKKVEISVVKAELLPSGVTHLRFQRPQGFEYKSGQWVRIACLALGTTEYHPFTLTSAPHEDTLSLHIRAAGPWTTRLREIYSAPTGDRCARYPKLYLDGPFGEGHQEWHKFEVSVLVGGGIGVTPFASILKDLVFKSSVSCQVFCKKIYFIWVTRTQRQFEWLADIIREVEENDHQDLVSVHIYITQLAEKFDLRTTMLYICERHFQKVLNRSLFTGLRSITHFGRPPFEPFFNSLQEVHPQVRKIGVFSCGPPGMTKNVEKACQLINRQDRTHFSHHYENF

Row | Structure (SMILES) | HDM-induced IL-33 secretion (culture media) [1] | ATP-induced H2O2 production (DUOX1 [2]) | further results
1 | C=CC=O [acrolein, 2,3-propenal] | inhibited HDM-induced IL-33 secretion | dose-dependent inhibition | allergen-induced secretion of IL-33, IL-1α or IL-17E ([1]; cultured tracheal epithelial cells from mice, acrolein pretreatment): inhibits allergen-induced secretion of IL-33, IL-1α or IL-17E in a dose-dependent manner; cellular GSH depletion (cellular GSH): occurred in the absence of cellular GSH depletion; allergen-induced extracellular H2O2 production (DUOX1 [2]; non-toxic concentrations (3-30 micromolar)): markedly suppressed; also recorded: inhibits allergen-induced H2O2 production; allergic inflammation and mucus metaplasia [3]: dramatically suppress allergic inflammation and mucus metaplasia; allergen-induced EGFR autophosphorylation (EGFR): markedly suppressed allergen-induced EGFR autophosphorylation; allergen-induced secretion of IL-33, IL-1α or IL-17E [4]: inhibits allergen-induced secretion of IL-33, IL-1α or IL-17E in a dose-dependent manner; ARP labeling of DUOX1 (direct adduct with DUOX1) (DUOX1 [5]): induced dose-dependent ARP labeling of DUOX1; allergen-mediated Ca^2+ increases [6]: did not affect allergen-mediated Ca^2+ increases; production of IL-33, IL-1α or IL-17E (BAL cytokines) [7]: dramatically minimized production of IL-33, IL-1α or IL-17E
2 | O=C/C=C/c1ccccc1 [cinnamaldehyde, (2E)-3-phenylprop-2-enal] | inhibited HDM-induced IL-33 secretion | capable of inhibiting ATP-mediated H2O2 production; also recorded: dose-dependent inhibition | 
3 | COc1cc(/C=C/C(=O)CC(=O)/C=C/c2ccc(O)c(OC)c2)ccc1O [curcumin, (1E,6E)-1,7-Bis(4-hydroxy-3-methoxyphenyl)-1,6-heptadiene-3,5-dione] | inhibited HDM-induced IL-33 secretion | capable of inhibiting ATP-mediated H2O2 production | 
4 | C=CS(=O)(=O)Oc1ccccc1 [phenyl vinyl sulfonate] |  | dose-dependent inhibition | 
5 | C=CS(=O)(=O)c1ccccc1 [phenyl vinyl sulfone] |  | Inhibitory effects | 
6 | C[S+]([O-])CCCCN=C=S (stereo not shown) [sulforaphane, 1-Isothiocyanato-4-methylsulfinylbutane] | inhibited HDM-induced IL-33 secretion | capable of inhibiting ATP-mediated H2O2 production; also recorded: dose-dependent inhibition | 
